According to article PMC6199744, “Development of Chemical Proteomics for the Folateome and Analysis of the Kinetoplastid Folateome” (ACS Infectious Diseases, 2018):

Tested on: L. major lysate proteins
Test: Multitargeted bead mixture chemoproteomics, single concentration competition, proteome-wide
Format: binding

NCCOCCOCC(=O)Nc1nc2ncc(CNc3ccc(C(=O)NC(CCC(=O)O)C(=O)O)cc3)nc2c(=O)[nH]1 (stereo not shown) [compound 6]
fold change (protein LMJF.35.0420 40S RIBOSOMAL PROTEIN S3A, PUTATIVE, vehicle control = 1): 1.15
fold change relative to vehicle control (protein LMJF.35.1220, SHORT CHAIN DEHYDROGENASE, PUTATIVE): 1.09
fold change relative to vehicle control (protein LMJF.35.1380, MIT[…], BETA SUBUNIT, PUTATIVE): 1.08
fold change vs vehicle control (protein LMJF.35.1830 HYPOTHETICAL PROTEIN, CONSERVED): 0.93
fold change vs vehicle control (protein LMJF.35.3340 6-phosphogluconate dehydrogenase): 0.99
fold change (protein LMJF.35.3700 GIM5A PROTEIN, PUTATIVE,GLYCOSOMAL MEMBRANE PROTEIN, vehicle control = 1): 0.99
fold change vs vehicle control (protein LMJF.35.3760 60S RIBOSOMAL PROTEIN L27A/L29, PUTATIVE): 0.97
fold change relative to vehicle control (protein LMJF.35.3840, […] 2 SUBUNIT, PUTATIVE): 1.14
fold change vs vehicle control (protein LMJF.35.3860 T-COMPLEX PROTEIN 1, ETA SUBUNIT, PUTATIVE): 1
fold change (protein LMJF.35.4420 MIT[…] TRANSPORTER, PUTATIVE, vehicle control = 1): 1.05
fold change relative to vehicle control (protein LMJF.35.4880, HY[…], CONSERVED (TPR repeat, putative)): 1.34
fold change relative to vehicle control (protein LMJF.35.5330, ISOPENTENYL-D[…]-ISOMERASE, PUTATIVE): 1.14
fold change relative to vehicle control (protein LMJF.36.0070, STRESS-INDUCIBLE PROTEIN STI1 HOMOLOG): 1.56
fold change (protein LMJF.36.0480 HYPOTHETICAL PROTEIN, CONSERVED, vehicle control = 1): 0.98
fold change vs vehicle control (protein LMJF.36.0620 HYPOTHETICAL PROTEIN, CONSERVED): 0.81
fold change vs vehicle control (protein LMJF.36.0930 40S RIBOSOMAL PROTEIN S18, PUTATIVE): 1.15
fold change vs vehicle control (protein LMJF.36.0990 40S RIBOSOMAL PROTEIN S10, PUTATIVE): 0.99
fold change (protein LMJF.36.1140 SHORT CHAIN 3-HYDROXYACYL-COA DEHYDROGENASE, PUTATIVE, vehicle control = 1): 0.82
fold change relative to vehicle control (protein LMJF.36.1260, FRUCTOSE-1,6-BI[…]): 1.05
fold change (protein LMJF.36.1340 N-ACETYLTRANSFERASE SUBUNIT NAT1, PUTATIVE, vehicle control = 1): 0.91
fold change vs vehicle control (protein LMJF.36.1650 […] 5 SUBUNIT, PUTATIVE): 1.03
fold change relative to vehicle control (protein LMJF.36.2380, STEROL 24-C-METHYLTRANSFERASE, PUTATIVE): 1
fold change relative to vehicle control (protein LMJF.36.2660, DIHYDROLIPOAMIDE ACETYLTRANSFERASE PRECURSOR, PUTATIVE): 1
fold change vs vehicle control (protein LMJF.36.2950 SUCCINYL-COA LIGASE GDP-FORMING] BETA-CHAIN, PUTATIVE): 1.06
fold change vs vehicle control (protein LMJF.36.3210 14-3-3 PROTEIN-LIKE PROTEIN): 0.97
fold change vs vehicle control (protein LMJF.36.3410 SHORT CHAIN DEHYDROGENASE-LIKE PROTEIN): 1.22
fold change (protein LMJF.36.3460 HYPOTHETICAL PROTEIN, CONSERVED (NIPSNAP, putative), vehicle control = 1): 1.1
fold change (protein LMJF.36.3580 HYPOTHETICAL PROTEIN, CONSERVED (Protein of unknown function (DUF2009), putative), vehicle control = 1): 0.92
fold change (protein LMJF.36.3750 40S RIBOSOMAL PROTEIN S27-1, PUTATIVE, vehicle control = 1): 0.73
fold change vs vehicle control (protein LMJF.36.5010 40S RIBOSOMAL PROTEIN SA, PUTATIVE): 1.07
fold change vs vehicle control (protein LMJF.36.5130 HY[…], CONSERVED): 1.09
fold change vs vehicle control (protein LMJF.36.5150 HY[…], CONSERVED): 1.01
fold change relative to vehicle control (protein LMJF.36.5380, NADH DEHYDROGENASE, PUTATIVE): 0.94
fold change vs vehicle control (protein LMJF.36.5390 PHOSPHORIBOSYLPYROPHOSPHATE SYNTHETASE, PUTATIVE): 0.99
fold change vs vehicle control (protein LMJF.36.5620 ISOLEUCYL-TRNA SYNTHETASE, PUTATIVE): 1.03
fold change (protein LMJF.36.6430 PROTEIN TRANSPORT PROTEIN SEC23-LIKE PROTEIN, vehicle control = 1): 0.83
fold change vs vehicle control (protein LMJF.36.6760 HY[…], CONSERVED): 1.01
fold change relative to vehicle control (protein LMJF.[…], MIT[…] BETA SUBUNIT, PUTATIVE): 0.95
fold change relative to vehicle control (protein LMJF.[…], POLY(A) EXPORT PROTEIN, PUTATIVE): 1.14
fold change (vs vehicle control, protein LINJ.20.0630 CYTIDINE TR[…], PUTATIVE,CTP SYNTHASE, PUTATIVE): 1.07
fold change (vs vehicle control, protein LINJ.20.1390 COATOMER BETA SUBUNIT, PUTATIVE): 0.82
fold change (vs vehicle control, protein LMJF.05.1140 VACUOLAR ATPASE SUBUNIT-LIKE PROTEIN): 0.91
fold change (vs vehicle control, protein LMJF.07.1090 DELTA-5 FATTY ACID DESATURASE): 1
fold change (vs vehicle control, protein LMJF.09.0220 HYPOTHETICAL PROTEIN, CONSERVED): 0.97
fold change (vs vehicle control, protein LMJF.11.1030 HYPOTHETICAL PROTEIN, CONSERVED): 0.98
fold change (vs vehicle control, protein LMJF.14.0640 FATTY ACID ELONGASE, PUTATIVE): 0.92
fold change (vs vehicle control, protein LMJF.14.0705 FATTY ACID ELONGASE, PUTATIVE): 0.88
fold change (vs vehicle control, protein LMJF.14.1120 KINESIN K39, PUTATIVE): 0.71
fold change (vs vehicle control, protein LMJF.16.1610 PROHIBITIN): 1.16
fold change (vs vehicle control, protein LMJF.17.0010 HYPOTHETICAL PROTEIN, CONSERVED): 0.97
fold change (vs vehicle control, protein LMJF.18.1130 RAS-RELATED PROTEIN RAB-5, PUTATIVE): 0.75
fold change (vs vehicle control, protein LMJF.19.1420 CYSTEINE PEPTIDASE A (CPA)): 0.86
fold change (vs vehicle control, protein LMJF.21.0280 HY[…], CONSERVED): 0.84
fold change (vs vehicle control, protein LMJF.22.1560 40S RIBOSOMAL PROTEIN L14, PUTATIVE): 0.78
fold change (vs vehicle control, protein LMJF.23.1220 T-COMPLEX PROTEIN 1, GAMMA SUBUNIT, PUTATIVE): 1.06
fold change (vs vehicle control, protein LMJF.24.0370 ASPARTATE AMINOTRANSFERASE, PUTATIVE): 1.14
fold change (vs vehicle control, protein LMJF.25.1770 ENOYL-COA REDUCTASE, PUTATIVE): 1.08
fold change (vs vehicle control, protein LMJF.26.0170 60S RIBOSOMAL PROTEIN L7, PUTATIVE): 0.82
fold change (vs vehicle control, protein LMJF.26.1550 TRI[…] ALPHA SUBUNIT, MIT[…]-LIKE PROTEIN): 1.11
fold change (vs vehicle control, protein LMJF.26.1610 PROLINE OXIDASE, MIT[…]-LIKE PROTEIN): 1.02
fold change (vs vehicle control, protein LMJF.28.1950 X-PRO, DIPEPTIDYL-PEPTIDASE,SERINE PEPTIDASE, CLAN SC, FAMILY S15, PUTATIVE): 0.94
fold change (vs vehicle control, protein LMJF.31.1070 BIOTIN/LIPOATE PROTEIN LIGASE-LIKE PROTEIN): 0.89
fold change (vs vehicle control, protein LMJF.32.1370 HYPOTHETICAL PROTEIN, CONSERVED): 0.94
fold change (vs vehicle control, protein LMJF.34.0490 IMPORTIN BETA-1 SUBUNIT, PUTATIVE): 0.96
fold change (vs vehicle control, protein LMJF.34.4060 UBIQUITIN HYDROLASE, PUTATIVE,CYSTEINE PEPTIDASE, CLAN CA, FAMILY C19, PUTATIVE): 0.85
fold change (vs vehicle control, protein LMJF.36.1600 […] 1 SUBUNIT, PUTATIVE): 0.96
fold change (vs vehicle control, protein LMJF.[…] RIBOSOMAL PROTEIN S7, PUTATIVE): 1.2
